Results taken from PMC8851771, “Molecular action of larvicidal flavonoids on ecdysteroidogenic glutathione S-transferase Noppera-bo in Aedes aegypti” (BMC Biology, 2022).
Like-named read-outs stand apart in the source and are kept apart here. Each block holds one molecule with its values, some of them ahead of it.

Tests used:
[1] = molecular target: AeNobo-WT (Aedes aegypti, UniProt A0A1S4FIB3); assay: GST activity inhibition assay with 3,4-DNADCF, wild-type AeNobo; assay type: biochemical
Procedure: We prepared a purified AeNobo recombinant protein (220-aa length) using an Escherichia coli protein expression system. The GST enzymatic activity was examined using the fluorogenic artificial substrate 3,4-dinitrobenzamidedichlorofluorescein (3,4-DNADCF).
The IC50 value was measured using an in vitro assay system as described previously. […] Five microliters of each diluted compound solution was mixed with 245 μL of solution A (100 mM sodium phosphate buffer at pH 6.5, 0.01% Tween 20, 2 mM GSH, and 50 ng/mL AeNobo-WT, 100 ng/mL AeNobo-E113A, and 200 ng/mL F39L). One hundred microliters of the mixture was dispensed into wells of a 96-well plate. One hundred microliters of solution B (0.2 μM 3,4-DNADCF and 100 mM sodium phosphate buffer at pH 6.5) was added to each well. In summary, the final reaction system comprised 100 mM sodium phosphate buffer (pH 6.5), 1 mM GSH, 0.005% Tween 20, 0.1 μM 3,4-DNACDF, and 25 ng/mL AeNobo, 50 ng/mL AeNobo-E113A, or 100 ng/mL AeNobo-F39L protein. The fluorescence intensity derived from 4-GS-3-NADCF, a product of this reaction, was measured for 3 min. IC50 values were estimated as described previously. The enzymatic assays under each condition were performed at least twice independently.
To identify inhibitors of AeNobo enzymatic activity, a high-throughput screening was performed as described in a previous study. Briefly, a core library of 9600 compounds obtained from the Drug Discovery Initiative, The University of Tokyo, was utilized for screening. In this screen, the enzymatic activity of AeNobo was detected using 3,4-DNADCF [29]. […] Then, 1 μL of solution B (4 μM 3,4-DNADCF, 100 mM sodium phosphate at pH 6.5, and 0.005% Tween 20) was added into each well. In summary, the reaction system comprised 5.6 ng/mL AeNobo protein, 2 μM 3,4-DNADCF, 1 mM GSH, 0.005% Tween 20, and 100 mM sodium phosphate at pH 6.5, together with each compound at 10 μM. The plate was incubated for 30 min at 25–27 °C and 2 μL of 10 mM N-ethylmaleimide was added into each well to stop the reaction. […] For the second screen, we assayed the IC50 values of the compounds against the enzymatic activity of AeNobo.

[2] = molecular target: AeNobo-E113A (Aedes aegypti, UniProt A0A1S4FIB3, E164K); assay: GST activity inhibition assay with 3,4-DNADCF, AeNobo-E113A; assay type: biochemical
Excerpt: The importance of the Glu-113–flavonoid hydrogen bond for flavonoid binding was biochemically examined with a recombinant mutated AeNobo protein carrying an E113A aa substitution (AeNobo-E113A).
(§1) pCold III plasmids expressing the AeNobo-E113A and AeNobo-F39L were constructed using KOD-Plus-Mutagenesis Kit (Toyobo). The following primers were used: E113A-F (5′-[…]-3′) and E113A-R (5′-[…]-3′) for AeNobo-E113A and F39L-F (5′-[…]-3′) and F39L-R (5′-[…]-3′) for AeNobo-F39L. We conducted inverse PCR using KOD-plus polymerase, pColdIII/AeNobo-WT plasmid, and the primer pair described above under the following conditions: pre-denaturation at 94 °C for 2 min, denaturation at 98 °C for 10 s, and extension at 68 °C for 6 min for 6 cycles. The PCR products were treated with DpnI at 37 °C for 1 h, followed by self-ligation using T4 polynucleotide kinase and Ligation High. After the transformation of DH5α bacteria using the ligation products, we extracted plasmid DNA from the colonies and verified their sequences to confirm whether the appropriate point mutations were introduced.
The IC50 value was measured using an in vitro assay system as described previously. A dilution series of compounds, ranging from 2.5 mM to 0.127 μM for DMG and from 2.5 mM to 4.9 μM for other compounds, was prepared by 2-fold serial dilution in DMSO. Five microliters of each diluted compound solution was mixed with 245 μL of solution A (100 mM sodium phosphate buffer at pH 6.5, 0.01% Tween 20, 2 mM GSH, and 50 ng/mL AeNobo-WT, 100 ng/mL AeNobo-E113A, and 200 ng/mL F39L). One hundred microliters of the mixture was dispensed into wells of a 96-well plate. One hundred microliters of solution B (0.2 μM 3,4-DNADCF and 100 mM sodium phosphate buffer at pH 6.5) was added to each well. In summary, the final reaction system comprised 100 mM sodium phosphate buffer (pH 6.5), 1 mM GSH, 0.005% Tween 20, 0.1 μM 3,4-DNACDF, and 25 ng/mL AeNobo, 50 ng/mL AeNobo-E113A, or 100 ng/mL AeNobo-F39L protein. The fluorescence intensity derived from 4-GS-3-NADCF, a product of this reaction, was measured for 3 min. IC50 values were estimated as described previously. The enzymatic assays under each condition were performed at least twice independently.

[3] = test system: Ae. aegypti 1st instar larvae; conditions: cited from earlier work
[4] = molecular target: AeNobo-F39L (Aedes aegypti, UniProt A0A1S4FIB3, F90L); assay: GST activity inhibition assay with 3,4-DNADCF, AeNobo-F39L; assay type: biochemical
Procedure: as §1
The IC50 value was measured using an in vitro assay system as described previously. A dilution series of compounds, ranging from 2.5 mM to 0.127 μM for DMG and from 2.5 mM to 4.9 μM for other compounds, was prepared by 2-fold serial dilution in DMSO. […] The fluorescence intensity derived from 4-GS-3-NADCF, a product of this reaction, was measured for 3 min. […]

[5] = molecular target: Aedes aegypti Noppera-bo (AeNobo), wild type, 220-aa protein (Aedes aegypti); assay: SEC; gel filtration of purified AeNobo on HiLoad Superdex200 26/60; 150 mM NaCl, 25 mM Tris-HCl pH 8.0, 5 mM DTT; 1 mL/min; compared with marker proteins
[6] = Table S2, estrogenic compounds against AeNobo, read-out: IC50 (μM) (mean ± s.d.)
[7] = Table 1, GSH conjugation of 3,4-DNADCF, read-out: IC50 to AeNobo-WT (μM) (mean ± s.d.)
[8] = read-out: IC50 (μM) (mean ± s.d.)
[9] = Table S5, luteolin derivatives against AeNobo, read-out: IC50 (μM) (mean ± s.d.)

Sequence of AeNobo-WT (A0A1S4FIB3 entry or part of it): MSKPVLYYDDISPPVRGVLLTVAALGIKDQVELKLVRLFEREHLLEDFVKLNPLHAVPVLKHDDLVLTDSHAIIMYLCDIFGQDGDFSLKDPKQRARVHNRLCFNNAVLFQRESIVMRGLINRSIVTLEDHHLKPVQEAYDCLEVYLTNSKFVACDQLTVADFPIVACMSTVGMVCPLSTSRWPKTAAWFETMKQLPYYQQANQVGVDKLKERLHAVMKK
Sequence of AeNobo-E113A (A0A1S4FIB3 entry or part of it E164K): as the sequence (A0A1S4FIB3 entry or part of it) above, with E113K counted along it
Sequence of AeNobo-F39L (A0A1S4FIB3 entry or part of it F90L): as the sequence (A0A1S4FIB3 entry or part of it) above, with F39L counted along it

Molecule: ClC(Cl)=C(c1ccc(Cl)cc1)c1ccc(Cl)cc1 [1,1-Dichloro-2,2-bis(4-chlorophenyl)ethene]
IC50 [1]: > 25 µM

Molecule: CCCCOC(=O)c1ccccc1C(=O)OCc1ccccc1 [1-benzyl 2-butyl benzene-1,2-dicarboxylate]
IC50 [1, 6]: > 25 µM

Molecule: Cn1c(N)nc2ncc(-c3ccccc3)cc21 [2-Amino-1-methyl-6-phenylimidazo[4,5-b]pyridine]
IC50 [1]: > 25 µM

Molecule: O=C1CC(c2ccccc2O)Oc2ccccc21 (stereo not shown) [2′-Hydroxyflavanone]
IC50 [1, 7]: 4.76 ± 0.37 µM
IC50 [2]: > 25 µM

Inhibition of enzymatic activity of AeNobo (in words) ([1]; 3,4-DNADCF): did not inhibit
IC50 [1, 8]: > 25 µM
Molecule: O=c1c(-c2ccc(O)cc2)coc2ccccc12 [3-(4-Hydroxyphenyl)-4H-chromen-4-one]

Molecule: CC(C)(C)CC(C)(C)c1ccc(O)cc1 [4-(2,4,4-trimethylpentan-2-yl)phenol]
IC50 [1, 6]: > 25 µM

Molecule: Oc1ccc(C(c2ccc(O)cc2)C(Cl)(Cl)Cl)cc1 [4-[2,2,2-trichloro-1-(4-hydroxyphenyl)ethyl]phenol]
IC50 [1]: > 25 µM

IC50 [1, 6]: > 25 µM
Molecule: CC1=CC[C@@H]2C[C@H]1C(c1ccc(O)cc1)OC2(C)C (stereo partly drawn) [4-[(1R,5R)-4,4,8-trimethyl-3-oxabicyclo[3.3.1]non-7-en-2-yl]phenol]

IC50 [1, 6]: > 25 µM
Molecule: CC1=CC(C)[C@@]2(CO)COC(c3ccc(O)cc3)[C@@H]1C2C (stereo partly drawn) [4-[(1R,5R)-5-(hydroxymethyl)-6,8,9-trimethyl-3-oxabicyclo[3.3.1]non-7-en-2-yl]phenol]

IC50 [1]: 1.64 ± 0.1 µM
Inhibition of enzymatic activity of AeNobo (in words) ([1]; 3,4-DNADCF): retained inhibitory activity
Molecule: O=c1cc(-c2ccc(O)c(O)c2)oc2cccc(O)c12 [5,3’,4’-Trihydroxyflavone, 5,3′,4′-trihydroxyflavone]

Inhibition of enzymatic activity of AeNobo (in words) ([1]; 3,4-DNADCF): retained inhibitory activity
IC50 [1, 8]: 10.3 ± 0.47 µM
Molecule: O=c1cc(-c2ccc(O)c(O)c2)oc2cc(O)ccc12 [7,3’,4’-Trihydroxyflavone, 7,3′,4′-trihydroxyflavone]

IC50 [1]: 5.61 ± 0.3 µM
Inhibition of enzymatic activity of AeNobo (in words) ([1]; 3,4-DNADCF): retained inhibitory activity
Molecule: O=c1c(-c2ccccc2)coc2cc(O)ccc12 [7-Hydroxyisoflavone]

Molecule: C[C@]12CC[C@@H]3c4ccc(O)cc4CC[C@H]3[C@@H]1C/C(=C\c1ccccc1)C2=O [16-benzylidene estrone]
IC50 [1, 6]: > 25 µM

IC50 [1, 6]: > 25 µM
Molecule: Cc1cc(-c2ccc3c(c2)CC[C@]3(C)O)cc(C)c1O [(S)-5-(4-hydroxy-3,5-dimethylphenyl)-1-methyl-2,3-dihydro-1H-inden-1-ol]

Molecule: O=c1cc(-c2ccc(O)cc2)oc2cc(O)cc(O)c12 [Apigenin]
IC50 [1, 9]: > 25 µM
IC50 ([1]; text and figures, 3,4-DNADCF, read-out: IC50 against AeNobo (WT)): > 25 µM

Molecule: COc1ccc(-c2coc3cc(O)cc(O)c3c2=O)cc1 [Biochanin A]
IC50 [1, 7]: 1.84 ± 0.06 µM
IC50 ([2]; Table 1, GSH conjugation of 3,4-DNADCF, read-out: IC50 to AeNobo-E113A (μM) (mean ± s.d.)): > 25 µM

IC50 [1]: > 25 µM
Molecule: CC(C)(c1ccc(O)cc1)c1ccc(O)cc1 [Biosphenol A, 4,4'-propane-2,2-diyldiphenol]

Molecule: O=c1cc(-c2ccccc2)oc2cc(O)cc(O)c12 [Chrysin]
Inhibition of enzymatic activity of AeNobo (in words) ([1]; 3,4-DNADCF): did not exhibit any inhibitory activity
IC50 [1, 9]: > 25 µM

Molecule: Oc1cc(O)c2cc(O)c(-c3ccc(O)c(O)c3)[o+]c2c1 [Cyanidin chloride]
IC50 [1, 7]: 2.15 ± 0.24 µM
IC50 [2]: > 25 µM

Molecule: O=c1c(-c2ccc(O)cc2)coc2cc(O)ccc12 [Daidzein]
IC50 [1]: 3.87 ± 0.52 µM
IC50 [2]: > 25 µM
Larvicidal activity against Ae. aegypti [3]: exhibit larvicidal activity
Larvicidal activity toward Ae. aegypti [3]: known to exhibit larvicidal activity

Molecule: O=c1c(O)c(-c2ccc(O)c(O)c2)oc2cc(O)ccc12 [Fisetin]
IC50 [1, 7]: 1.69 ± 0.04 µM
IC50 [2]: > 25 µM

IC50 [1, 8]: 1.86 ± 0.41 µM
Molecule: O=c1c(-c2ccc(O)cc2)coc2cc(O)cc(O)c12 [Genistein]
Larvicidal activity against Ae. aegypti [3]: exhibit larvicidal activity

Molecule: O=c1c(O)c(-c2ccc(O)cc2)oc2cc(O)cc(O)c12 [Kaempferol]
IC50 [1, 7]: 4.91 ± 1.69 µM
IC50 [2]: > 25 µM

Molecule: O=c1cc(-c2ccc(O)c(O)c2)oc2cc(O)cc(O)c12 [Luteolin]
IC50 [4]: 1.58 µM
IC50 [2]: 35.8 ± 5.73 µM
Larvicidal activity toward Ae. aegypti [3]: known to exhibit larvicidal activity

Molecule: O=c1c(O)c(-c2cc(O)c(O)c(O)c2)oc2cc(O)cc(O)c12 [Myricetin]
IC50 [1]: 2.91 ± 0.27 µM
IC50 [2]: > 25 µM

Molecule: O=C1C[C@@H](c2ccc(O)cc2)Oc2cc(O)cc(O)c21 [Naringenin]
IC50 [1, 7]: > 25 µM

Molecule: COc1cc(-c2[o+]c3cc(O)cc(O)c3cc2O)cc(O)c1O [Petunidin]
IC50 [1, 7]: 14.9 ± 2.01 µM
IC50 [2]: > 25 µM

Molecule: O=c1c(O)c(-c2ccc(O)c(O)c2)oc2cc(O)cc(O)c12 [Quercetin]
IC50 [1]: 0.963 ± 0.094 µM
IC50 [2]: > 25 µM

Molecule: Oc1ccc(/C=C/c2cc(O)cc(O)c2)cc1 [Resveratrol]
IC50 [1, 6]: > 25 µM

IC50 [1, 7]: > 25 µM
Molecule: Oc1ccc([C@H]2COc3cc(O)ccc3C2)cc1 [S-equol]

IC50 [1, 7]: > 25 µM
Molecule: COc1ccc(-c2oc3cc(O)cc(O)c3c(=O)c2O)cc1O [Tamarixetin]

Molecule: C[C@H]1CCCC(=O)CCC/C=C/c2cc(O)cc(O)c2C(=O)O1 [Zearalenone]
IC50 [1]: > 25 µM

IC50 [1, 6]: > 25 µM
Molecule: O=C(c1ccc(O)cc1O)c1ccc(O)cc1O [bis(2,4-dihydroxyphenyl)methanone]

Molecule: CCCCOC(=O)c1ccc(O)cc1 [butyl 4-hydroxybenzoate]
IC50 [1, 6]: > 25 µM

Molecule: CCCOC(=O)c1ccc(O)cc1 [propyl 4-hydroxybenzoate]
IC50 [1, 6]: > 25 µM

Molecule: C[C@H]1CCC[C@H](O)CCCCCc2cc(O)cc(O)c2C(=O)O1 [α-zearalanol]
IC50 [1, 6]: > 25 µM

IC50 [1, 7]: > 25 µM
Molecule: (+)-catechin hydrate [(+) Catechin hydrate]

stoichiometry N [5]: 2
Molecule: Aedes aegypti Noppera-bo (AeNobo), wild type, 220-aa protein (enzyme)
